Results taken from patent US20030104507A1, “Method for detection of ATP” (priority 2001, published 2003).

System: Jurkat cells
Assay: Effect of NaF on Jurkat cell luminescence
Type: cell-based
Source text: In some cells, such as lymphoid cells (e.g., Jurkat), an increase in luminescence over time in the presence of the reagent composition solution is observed. While the underlying mechanism of this increase in luminescence is not known, it is postulated that it results from the functioning of ATP-generating enzymes in this cell. The activity of such enzymes, if left unchecked, will result in an over-estimation of ATP in a sample at the time of the assay. This experiment was designed to test the effects of sodium fluoride on luminescence when using lymphoid cells.
Jurkat cells (ATCC, CRL-1990) were grown in 5% CO2/95% air, 100% humidity at 37° C. and maintained in RPMI media (Sigma, R-8005) containing 10% FBS (Hyclone #SH30070), 1X non-essential amino acids (Hyclone SH30238) and 1 mM sodium pyruvate (Hyclone #SH30239). Cells were plated at 0, 12500, 25000, and 50000 cells/well in 100 μl of media in a 96-well microtiter luminometer plate. Quadruplicate replicates were prepared. To each of these wells was added reagent composition (reagent composition=40 mM Citrate buffer (pH 6.0), 110 mM MES buffer (pH 6.0), 0.2 mM EDTA, 0.2% Gelatin, 100 μg/ml Luciferase (LucPpe2m146, diluted from 37.8 mg/ml stock solution), 100 μM luciferin, 300 mM NaCl, 20 mM MgSO4, 0.05% Mazu DF-204, 0.6% DTAB). In addition, all but the “no KPO4” control sample contained 60 mM KPO4 buffer (pH 6.0). Various concentrations of NaF were then added to the above solution to final concentrations of 0, 1.0, 2.0, 4.0, 10.0 mM; one condition had 10.0 mM NaF but without KPO4.
Total reaction volume per well was 200 μl, consisting of 100 μl cells plus media and 100 μl reagent composition containing KPO4 and/or NaF. The light output was taken at various times on a Dynex microtiter plate luminometer at a 0.5 second read time. The resulting average rlus from quadruplicate wells and calculated signal stabilities as measured by their half-life values are reported in Table S.

## [F-].[Na+] [NaF, sodium fluoride]
1.0 mM NaF, 12500 cells/well, 0 min
  Average rlu: 358.61 rlu
1.0 mM NaF, 12500 cells/well, 30 min
  Average rlu: 341.31 rlu
1.0 mM NaF, 12500 cells/well, 85 min
  Average rlu: 331.08 rlu
1.0 mM NaF, 12500 cells/well, 130 min
  Average rlu: 323.54 rlu
1.0 mM NaF, 12500 cells/well, 220 min
  Average rlu: 271.89 rlu
1.0 mM NaF, 12500 cells/well, 255 min
  Average rlu: 257.06 rlu
1.0 mM NaF, 12500 cells/well, 285 min
  Average rlu: 247.61 rlu
1.0 mM NaF, 25000 cells/well, 0 min
  Average rlu: 691.68 rlu
1.0 mM NaF, 25000 cells/well, 30 min
  Average rlu: 640.53 rlu
1.0 mM NaF, 25000 cells/well, 85 min
  Average rlu: 611.45 rlu
1.0 mM NaF, 25000 cells/well, 130 min
  Average rlu: 596.87 rlu
1.0 mM NaF, 25000 cells/well, 220 min
  Average rlu: 495.89 rlu
1.0 mM NaF, 25000 cells/well, 255 min
  Average rlu: 463.32 rlu
1.0 mM NaF, 25000 cells/well, 285 min
  Average rlu: 446.32 rlu
1.0 mM NaF, 50000 cells/well, 0 min
  Average rlu: 1380.16 rlu
1.0 mM NaF, 50000 cells/well, 30 min
  Average rlu: 1268.49 rlu
1.0 mM NaF, 50000 cells/well, 85 min
  Average rlu: 1185.73 rlu
1.0 mM NaF, 50000 cells/well, 130 min
  Average rlu: 1147.33 rlu
1.0 mM NaF, 50000 cells/well, 220 min
  Average rlu: 936.82 rlu
1.0 mM NaF, 50000 cells/well, 255 min
  Average rlu: 862.31 rlu
1.0 mM NaF, 50000 cells/well, 285 min
  Average rlu: 832.15 rlu
2.0 mM NaF, 12500 cells/well, 0 min
  Average rlu: 348.16 rlu
2.0 mM NaF, 12500 cells/well, 30 min
  Average rlu: 333.48 rlu
2.0 mM NaF, 12500 cells/well, 85 min
  Average rlu: 323.75 rlu
2.0 mM NaF, 12500 cells/well, 130 min
  Average rlu: 317.48 rlu
2.0 mM NaF, 12500 cells/well, 220 min
  Average rlu: 258.43 rlu
2.0 mM NaF, 12500 cells/well, 255 min
  Average rlu: 251.90 rlu
2.0 mM NaF, 12500 cells/well, 285 min
  Average rlu: 239.40 rlu
2.0 mM NaF, 25000 cells/well, 0 min
  Average rlu: 679.02 rlu
2.0 mM NaF, 25000 cells/well, 30 min
  Average rlu: 631.69 rlu
2.0 mM NaF, 25000 cells/well, 85 min
  Average rlu: 603.07 rlu
2.0 mM NaF, 25000 cells/well, 130 min
  Average rlu: 589.08 rlu
2.0 mM NaF, 25000 cells/well, 220 min
  Average rlu: 472.37 rlu
2.0 mM NaF, 25000 cells/well, 255 min
  Average rlu: 455.25 rlu
2.0 mM NaF, 25000 cells/well, 285 min
  Average rlu: 433.54 rlu
2.0 mM NaF, 50000 cells/well, 0 min
  Average rlu: 1340.22 rlu
2.0 mM NaF, 50000 cells/well, 30 min
  Average rlu: 1239.83 rlu
2.0 mM NaF, 50000 cells/well, 85 min
  Average rlu: 1156.03 rlu
2.0 mM NaF, 50000 cells/well, 130 min
  Average rlu: 1111.04 rlu
2.0 mM NaF, 50000 cells/well, 220 min
  Average rlu: 873.26 rlu
2.0 mM NaF, 50000 cells/well, 255 min
  Average rlu: 829.87 rlu
2.0 mM NaF, 50000 cells/well, 285 min
  Average rlu: 781.80 rlu
4.0 mM NaF, 12500 cells/well, 0 min
  Average rlu: 367.69 rlu
4.0 mM NaF, 12500 cells/well, 30 min
  Average rlu: 346.05 rlu
4.0 mM NaF, 12500 cells/well, 85 min
  Average rlu: 335.27 rlu
4.0 mM NaF, 12500 cells/well, 130 min
  Average rlu: 331.07 rlu
4.0 mM NaF, 12500 cells/well, 220 min
  Average rlu: 275.13 rlu
4.0 mM NaF, 12500 cells/well, 255 min
  Average rlu: 259.58 rlu
4.0 mM NaF, 12500 cells/well, 285 min
  Average rlu: 251.79 rlu
4.0 mM NaF, 25000 cells/well, 0 min
  Average rlu: 691.41 rlu
4.0 mM NaF, 25000 cells/well, 30 min
  Average rlu: 634.08 rlu
4.0 mM NaF, 25000 cells/well, 85 min
  Average rlu: 604.37 rlu
4.0 mM NaF, 25000 cells/well, 130 min
  Average rlu: 587.41 rlu
4.0 mM NaF, 25000 cells/well, 220 min
  Average rlu: 476.36 rlu
4.0 mM NaF, 25000 cells/well, 255 min
  Average rlu: 453.66 rlu
4.0 mM NaF, 25000 cells/well, 285 min
  Average rlu: 436.38 rlu
4.0 mM NaF, 50000 cells/well, 0 min
  Average rlu: 1378.13 rlu
4.0 mM NaF, 50000 cells/well, 30 min
  Average rlu: 1277.41 rlu
4.0 mM NaF, 50000 cells/well, 85 min
  Average rlu: 1195.56 rlu
4.0 mM NaF, 50000 cells/well, 130 min
  Average rlu: 1139.99 rlu
4.0 mM NaF, 50000 cells/well, 220 min
  Average rlu: 883.49 rlu
4.0 mM NaF, 50000 cells/well, 255 min
  Average rlu: 853.43 rlu
4.0 mM NaF, 50000 cells/well, 285 min
  Average rlu: 813.31 rlu
10.0 mM NaF, 12500 cells/well, 0 min
  Average rlu: 364.79 rlu
10.0 mM NaF, 12500 cells/well, 30 min
  Average rlu: 343.44 rlu
10.0 mM NaF, 12500 cells/well, 85 min
  Average rlu: 331.48 rlu
10.0 mM NaF, 12500 cells/well, 130 min
  Average rlu: 326.32 rlu
10.0 mM NaF, 12500 cells/well, 220 min
  Average rlu: 271.64 rlu
10.0 mM NaF, 12500 cells/well, 255 min
  Average rlu: 256.88 rlu
10.0 mM NaF, 12500 cells/well, 285 min
  Average rlu: 248.30 rlu
10.0 mM NaF, 25000 cells/well, 0 min
  Average rlu: 753.29 rlu
10.0 mM NaF, 25000 cells/well, 30 min
  Average rlu: 677.94 rlu
10.0 mM NaF, 25000 cells/well, 85 min
  Average rlu: 635.67 rlu
10.0 mM NaF, 25000 cells/well, 130 min
  Average rlu: 617.77 rlu
10.0 mM NaF, 25000 cells/well, 220 min
  Average rlu: 496.08 rlu
10.0 mM NaF, 25000 cells/well, 255 min
  Average rlu: 471.66 rlu
10.0 mM NaF, 25000 cells/well, 285 min
  Average rlu: 450.76 rlu
10.0 mM NaF, 50000 cells/well, 0 min
  Average rlu: 1442.08 rlu
10.0 mM NaF, 50000 cells/well, 30 min
  Average rlu: 1324.67 rlu
10.0 mM NaF, 50000 cells/well, 85 min
  Average rlu: 1235.80 rlu
10.0 mM NaF, 50000 cells/well, 130 min
  Average rlu: 1181.84 rlu
10.0 mM NaF, 50000 cells/well, 220 min
  Average rlu: 903.44 rlu
10.0 mM NaF, 50000 cells/well, 255 min
  Average rlu: 870.95 rlu
10.0 mM NaF, 50000 cells/well, 285 min
  Average rlu: 826.48 rlu
10.0 mM NaF, without KPO4, 12500 cells/well, 0 min
  Average rlu: 409.57 rlu
10.0 mM NaF, without KPO4, 12500 cells/well, 30 min
  Average rlu: 400.10 rlu
10.0 mM NaF, without KPO4, 12500 cells/well, 85 min
  Average rlu: 384.84 rlu
10.0 mM NaF, without KPO4, 12500 cells/well, 130 min
  Average rlu: 371.42 rlu
10.0 mM NaF, without KPO4, 12500 cells/well, 220 min
  Average rlu: 294.12 rlu
10.0 mM NaF, without KPO4, 12500 cells/well, 255 min
  Average rlu: 283.01 rlu
10.0 mM NaF, without KPO4, 12500 cells/well, 285 min
  Average rlu: 267.78 rlu
10.0 mM NaF, without KPO4, 25000 cells/well, 0 min
  Average rlu: 806.87 rlu
10.0 mM NaF, without KPO4, 25000 cells/well, 30 min
  Average rlu: 785.16 rlu
10.0 mM NaF, without KPO4, 25000 cells/well, 85 min
  Average rlu: 734.44 rlu
10.0 mM NaF, without KPO4, 25000 cells/well, 130 min
  Average rlu: 692.57 rlu
10.0 mM NaF, without KPO4, 25000 cells/well, 220 min
  Average rlu: 516.69 rlu
10.0 mM NaF, without KPO4, 25000 cells/well, 255 min
  Average rlu: 498.99 rlu
10.0 mM NaF, without KPO4, 25000 cells/well, 285 min
  Average rlu: 468.90 rlu
10.0 mM NaF, without KPO4, 50000 cells/well, 0 min
  Average rlu: 1514.80 rlu
10.0 mM NaF, without KPO4, 50000 cells/well, 30 min
  Average rlu: 1449.30 rlu
NaF added to reagent composition
  effect on the luminescence increase seen with Jurkat cells: can inhibit the luminescence increase
